# Measured values published in US20200055839A1 (priority 2017, published 2020).
# System: NL-RLuc virus
# Experiment: Inhibition of HIV replication (NL-RLuc virus, luciferase readout in MT-2 cells)
# Type: cell-based
# Conditions: Human immunodeficiency virus 1, MT2, 120 h, MT-2 cells infected with NL-RLuc virus, 5 days of incubation, 10% FBS, at least 2 experiments
# Summary of the method: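 EC50 derived via median effect equation from at least 2 experiments, using luciferase expression as virus-growth readout. Replication-competent NL-RLuc reporter virus (nef partly replaced by Renilla luciferase) infected MT-2 cells with serial compound dilutions; 5-day incubation in RPMI 1640 plus 10% FBS.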
row,SMILES,EC50 [nM]
1,"Cc1ncc(-c2ccc(OCCc3ccc(F)cc3)cn2)c(N2CCC(C)(C)CC2)c1[C@H](OC(C)(C)C)C(=O)O [Example 126, (2S)-2-(tert-Butoxy)-2-[4′-(4,4-dimethylpiperidin-1-yl)-5-[2-(4-fluorophenyl)ethoxy]-6′-methyl-[2, 3′-bipyridine]-5′-yl]acetic acid]",0.4
2,"Cc1ncc(-c2cc(F)c(OCCc3ccc(F)cc3)c(F)c2)c(N2CCC(C)(C)CC2)c1[C@H](OC(C)(C)C)C(=O)O [Example 127, (S)-2-(tert-Butoxy)-2-(5-(3,5-difluoro-4-(4-fluorophenethoxy)phenyl)-4-(4,4-dimethylpiperidin-1-yl)-2-methylpyridin-3-yl)acetic acid]",4
3,"Cc1ncc(-c2ccc(OCCc3ccccc3F)c(F)c2)c(N2CCC(C)(C)CC2)c1[C@H](OC(C)(C)C)C(=O)O [Example 128, (S)-2-(tert-Butoxy)-2-(4-(4,4-dimethylpiperidin-1-yl)-5-(3-fluoro-4-(2-fluorophenethoxy)phenyl)-2-methylpyridin-3-yl)acetic acid]",2
4,"Cc1ncc(-c2cc(F)c(F)c(F)c2)c(N2CCC(C)(C)CC2)c1[C@H](OC(C)(C)C)C(=O)O [Example 129, (2S)-2-(tert-Butoxy)-2-[4-(4,4-dimethylpiperidin-1-yl)-2-methyl-5-(3,4,5-trifluorophenyl)pyridin-3-yl]acetic acid]",3
5,"Cc1ncc(-c2cc(F)ccc2F)c(N2CCC(C)(C)CC2)c1[C@H](OC(C)(C)C)C(=O)O [Example 130, (2S)-2-(tert-Butoxy)-2-[5-(2,5-difluorophenyl)-4-(4,4-dimethylpiperidin-1-yl)-2-methylpyridin-3-yl]acetic acid]",13
6,"Cc1ncc(-c2cccc(F)c2)c(N2CCC(C)(C)CC2)c1[C@H](OC(C)(C)C)C(=O)O [Example 133, (2S)-2-(tert-Butoxy)-2-[4-(4,4-dimethylpiperidin-1-yl)-5-(3-fluorophenyl)-2-methylpyridin-3-yl]acetic acid]",4
7,"Cc1ncc(-c2ccccc2)c(N2CCC(C)(C)CC2)c1[C@H](OC(C)(C)C)C(=O)O [Example 134, (2S)-2-(tert-Butoxy)-2-[4-(4,4-dimethylpiperidin-1-yl)-2-methyl-5-phenylpyridin-3-yl]acetic acid]",7
8,"Cc1ncc(-c2ccc(F)cc2)c(N2CCC(C)(C)CC2)c1[C@H](OC(C)(C)C)C(=O)O [Example 135, (2S)-2-(tert-Butoxy)-2-[4-(4,4-dimethylpiperidin-1-yl)-5-(4-fluorophenyl)-2-methylpyridin-3-yl]acetic acid]",3
9,"COc1ccc(-c2cnc(C)c([C@H](OC(C)(C)C)C(=O)O)c2N2CCC(C)(C)CC2)cc1 [Example 136, (2S)-2-(tert-Butoxy)-2-[4-(4,4-dimethylpiperidin-1-yl)-5-(4-methoxyphenyl)-2-methylpyridin-3-yl]acetic acid]",2
10,"Cc1ccccc1-c1cnc(C)c([C@H](OC(C)(C)C)C(=O)O)c1N1CCC(C)(C)CC1 [Example 137, (2S)-2-(tert-Butoxy)-2-[4-(4,4-dimethylpiperidin-1-yl)-2-methyl-5-(2-methylphenyl)pyridin-3-yl]acetic acid]",53
11,"Cc1ncc(-c2ccccc2-c2ccccc2)c(N2CCC(C)(C)CC2)c1[C@H](OC(C)(C)C)C(=O)O [Example 138, (2S)-2-(5-{[1,1′-Biphenyl]-2-yl}-4-(4,4-dimethylpiperidin-1-yl)-2-methylpyridin-3-yl)-2-(tert-butoxy)acetic acid]",71
12,"COc1c(F)cc(-c2c(CO)nc(C)c([C@H](OC(C)(C)C)C(=O)O)c2N2CCC(C)(C)CC2)cc1F [Example 139, (S)-2-(tert-Butoxy)-2-(5-(3,5-difluoro-4-methoxyphenyl)-4-(4,4-dimethylpiperidin-1-yl)-6-(hydroxymethyl)-2-methylpyridin-3-yl)acetic acid]",27
13,"Cc1nc(CO)c(-c2ccc(F)c(F)c2)c(N2CCC(C)(C)CC2)c1[C@H](OC(C)(C)C)C(=O)O [Example 140, (2S)-2-(tert-Butoxy)-2-[5-(3,4-difluorophenyl)-4-(4,4-dimethylpiperidin-1-yl)-6-(hydroxymethyl)-2-methylpyridin-3-yl]acetic acid]",53
14,"Cc1ncc(-c2ccncc2)c(N2CCC(C)(C)CC2)c1[C@H](OC(C)(C)C)C(=O)O [Example 141, (2S)-2-(tert-Butoxy)-2-[4-(4,4-dimethylpiperidin-1-yl)-6-methyl-[3, 4′-bipyridine]-5-yl]acetic acid]",8
15,"Cc1cc(-c2cnc(C)c([C@H](OC(C)(C)C)C(=O)O)c2N2CCC(C)(C)CC2)ccn1 [Example 142, (2S)-2-(tert-Butoxy)-2-[4-(4,4-dimethylpiperidin-1-yl)-2′,6-dimethyl-[3, 4′-bipyridine]-5-yl]acetic acid]",6
16,"Cc1ncc(-c2cccc(Cl)c2)c(N2CCC(C)(C)CC2)c1[C@H](OC(C)(C)C)C(=O)O [Example 143, (2S)-2-(tert-Butoxy)-2-[5-(3-chlorophenyl)-4-(4,4-dimethylpiperidin-1-yl)-2-methylpyridin-3-yl]acetic acid]",4

row,SMILES,EC50 [nM]
1,"Cc1ncc(-c2cccc(-c3cccc(Cl)c3)c2)c(N2CCC(C)(C)CC2)c1[C@H](OC(C)(C)C)C(=O)O [Example 144, (2S)-2-(tert-butoxy)-2-(5-{3′-chloro-[1,1′-biphenyl]-3-yl}-4-(4,4-dimethylpiperidin-1-yl)-2-methylpyridin-3-yl)acetic acid]",78
2,"Cc1ncc(-c2cccc(Cl)c2F)c(N2CCC(C)(C)CC2)c1[C@H](OC(C)(C)C)C(=O)O [Example 145, (2S)-2-(tert-Butoxy)-2-[5-(3-chloro-2-fluorophenyl)-4-(4,4-dimethylpiperidin-1-yl)-2-methylpyridin-3-yl]acetic acid]",5
3,"Cc1ncc(-c2cccc(C(N)=O)c2)c(N2CCC(C)(C)CC2)c1[C@H](OC(C)(C)C)C(=O)O [Example 146, (2S)-2-(tert-Butoxy)-2-[5-(3-carbamoylphenyl)-4-(4,4-dimethylpiperidin-1-yl)-2-methylpyridin-3-yl]acetic acid]",142
4,"Cc1ncc(-c2cccc(C(=O)O)c2)c(N2CCC(C)(C)CC2)c1[C@H](OC(C)(C)C)C(=O)O [Example 147, 3-{5-[(S)-(tert-butoxy) (carboxy)methyl]-4-(4,4-dimethylpiperidin-1-yl)-6-methylpyridin-3-yl}benzoic acid]",328
5,"Cc1ncc(-c2cncc(F)c2)c(N2CCC(C)(C)CC2)c1[C@H](OC(C)(C)C)C(=O)O [Example 148, (2S)-2-(tert-Butoxy)-2-[4-(4,4-dimethylpiperidin-1-yl)-5′-fluoro-6-methyl-[3, 3′-bipyridine]-5-yl]acetic acid]",7
6,"COc1ccc(-c2cnc(C)c([C@H](OC(C)(C)C)C(=O)O)c2N2CCC(C)(C)CC2)c(F)c1F [Example 149, (2S)-2-(tert-Butoxy)-2-[5-(2,3-difluoro-4-methoxyphenyl)-4-(4,4-dimethylpiperidin-1-yl)-2-methylpyridin-3-yl]acetic acid]",6
7,"COc1ccc(F)c(-c2cnc(C)c([C@H](OC(C)(C)C)C(=O)O)c2N2CCC(C)(C)CC2)c1 [Example 150, (2S)-2-(tert-Butoxy)-2-[4-(4,4-dimethylpiperidin-1-yl)-5-(2-fluoro-5-methoxyphenyl)-2-methylpyridin-3-yl]acetic acid]",12
8,"COc1ccc(F)cc1-c1cnc(C)c([C@H](OC(C)(C)C)C(=O)O)c1N1CCC(C)(C)CC1 [Example 151, (2S)-2-(tert-Butoxy)-2-[4-(4,4-dimethylpiperidin-1-yl)-5-(5-fluoro-2-methoxyphenyl)-2-methylpyridin-3-yl]acetic acid]",6
9,"COc1c(Cl)cccc1-c1cnc(C)c([C@H](OC(C)(C)C)C(=O)O)c1N1CCC(C)(C)CC1 [Example 152, (2S)-2-(tert-Butoxy)-2-[5-(3-chloro-2-methoxyphenyl)-4-(4,4-dimethylpiperidin-1-yl)-2-methylpyridin-3-yl]acetic acid]",60
10,"Cc1ncc(-c2ccccc2C#N)c(N2CCC(C)(C)CC2)c1[C@H](OC(C)(C)C)C(=O)O [Example 153, (2S)-2-(tert-Butoxy)-2-[5-(2-cyanophenyl)-4-(4,4-dimethylpiperidin-1-yl)-2-methylpyridin-3-yl]acetic acid]",29
11,"Cc1ncc(-c2ccccc2C(N)=O)c(N2CCC(C)(C)CC2)c1[C@H](OC(C)(C)C)C(=O)O [Example 154, (2S)-2-(tert-butoxy)-2-[5-(2-carbamoylphenyl)-4-(4,4-dimethylpiperidin-1-yl)-2-methylpyridin-3-yl]acetic acid]",52
12,"Cc1ncc(-c2cccnc2)c(N2CCC(C)(C)CC2)c1[C@H](OC(C)(C)C)C(=O)O [Example 155, (2S)-2-(tert-Butoxy)-2-[4-(4,4-dimethylpiperidin-1-yl)-6-methyl-[3, 3′-bipyridine]-5-yl]acetic acid]",11
13,"COc1cccc(-c2cnc(C)c([C@H](OC(C)(C)C)C(=O)O)c2N2CCC(C)(C)CC2)c1F [Example 156, (2S)-2-(tert-Butoxy)-2-[4-(4,4-dimethylpiperidin-1-yl)-5-(2-fluoro-3-methoxyphenyl)-2-methylpyridin-3-yl]acetic acid]",1
14,"COc1cc(F)c(F)c(-c2cnc(C)c([C@H](OC(C)(C)C)C(=O)O)c2N2CCC(C)(C)CC2)c1 [Example 157, (2S)-2-(tert-Butoxy)-2-[5-(2,3-difluoro-5-methoxyphenyl)-4-(4,4-dimethylpiperidin-1-yl)-2-methylpyridin-3-yl]acetic acid]",22
15,"COc1cccc(-c2cnc(C)c([C@H](OC(C)(C)C)C(=O)O)c2N2CCC(C)(C)CC2)c1OC [Example 158, (2S)-2-(tert-Butoxy)-2-[5-(2,3-dimethoxyphenyl)-4-(4,4-dimethylpiperidin-1-yl)-2-methylpyridin-3-yl]acetic acid]",16
